Results reported in patent publication US10308608B2, “Histone deacetylase inhibitors” (BIOMARIN PHARMACEUTICAL INC., priority 2015, dated 2019).
Where a name gives a salt, the structure may show the parent alone. Read-outs that look alike come from different tables or passages of the source.

Test system: Frataxin (FXN) mRNA
Assay: Effect of HDAC inhibitors on frataxin (FXN) mRNA expression, qRT-PCR in compound-treated iPSC derived neuronal cells
Assay type: cell-based
Conditions: for fold induction at 0.625 µM: iPSC, 24 h
Method: Effect of HDAC Inhibitors on Frataxin (FXN) mRNA Expression
Method: mRNA quantification of compound-treated iPSC derived neuronal cells Neuronal stem cells were cultured in Neurobasal A medium (Life technologies #10888022) supplemented with N2, B27 (Life technologies #17502-048 and #17504-044), L-glutamine (Life technologies #25030081), supplemented with 20 ng/ml EGF (R&D Systems #236-EG) and 20 ng/ml bFGF (BioPioneer # HRP-0011). Neuronal differentiation was initiated by removing growth factors and culturing cells in Neurobasal A with N2 and B27. Cells were allowed to differentiate for 16 days. HDAC inhibitory compound was then added and incubate for 24 h. RNA isolation was performed using the RNeasy Plus mini kit (QIAgen #74134) using a QIAcube instrument per manufacturer's instructions. qRT-PCR was performed using qScript One-Step SYBR Green qRT-PCR Kit (Quanta Biosciences 170-8893BR) with the following conditions: 20 minutes at 50° C., 5 minutes at 95° C., and then 40 cycles of 20 seconds at 95° C., 20 seconds at 55° C., 30 seconds at 72° C. The primer sequences to detect expression of FXN were: 5′-[…]-3′ and 5′-[…]-3′.
The data for the following compounds, for FXN mRNA fold induction at a compound concentration of 0.625 μM are shown in Table 1, where A<1, 1<B<2, 2<C<3, 3<D<5, E>5.

[1] = compound concentration of 0.625 μM, 24 h incubation, read-out: FXN mRNA fold induction
[2] = read-out: FXN mRNA fold induction, compound concentration of 0.625 μM, 24 h incubation

Structure (SMILES): Nc1ccccc1NC(=O)c1ccc(OC2CCCN(CC3CCCCC3)CC2)cc1 (single isomer, unassigned) [Compound 40A, N-(2-aminophenyl)-4-((1-(cyclohexylmethyl)azepan-4-yl)oxy)benzamide dihydrochloride]
- fold induction at 0.625 µM [1]: 1 to 2

Structure (SMILES): Nc1ccccc1NC(=O)c1ccc(OC2CCCN(CC3CCCCC3)CC2)cc1 (single isomer, unassigned) [Compound 40B, N-(2-aminophenyl)-4-((1-(cyclohexylmethyl)azepan-4-yl)oxy)benzamide dihydrochloride]
- FXN mRNA fold induction (compound concentration of 0.625 μM, 24 h incubation, dihydrochloride, 0.625 µM): C (2<C<3)

Structure (SMILES): Nc1ccccc1NC(=O)c1ccc(N[C@@H]2CCCN(CC3CCCCC3)CC2)cc1 (single isomer, unassigned) [Compound 85A]
- fold induction at 0.625 µM [1]: 2 to 3

Structure (SMILES): Nc1ccccc1NC(=O)c1ccc(N[C@H]2CCCN(CC3CCCCC3)CC2)cc1 (single isomer, unassigned) [Compound 85B]
- fold induction at 0.625 µM [1]: 2 to 3

Structure (SMILES): Nc1ccccc1NC(=O)c1ccc(OC2CCN(CC3CC3)CC2)cc1 [Compound 1, N-(2-aminophenyl)-4-((1-(cyclopropylmethyl)piperidin-4-yl)oxy)benzamide]
- fold induction at 0.625 µM [1]: 1 to 2

Structure (SMILES): CC(C)(O)CN1CCC(Oc2ccc(C(=O)Nc3ccccc3N)cc2)CC1 [Compound 2, N-(2-aminophenyl)-4-((1-(2-hydroxy-2-methylpropyl)piperidin-4-yl)oxy)benzamide]
- fold induction at 0.625 µM [1]: 1 to 2

Structure (SMILES): Nc1ccccc1NC(=O)c1ccc(NC2CCN(CC3CC3)CC2)cc1 [Compound 3, N-(2-aminophenyl)-4-((1-(cyclopropylmethyl)piperidin-4-yl)amino)benzamide]
- fold induction at 0.625 µM [1]: 1 to 2

Structure (SMILES): CC(C)(O)CN1CCC(Nc2ccc(C(=O)Nc3ccccc3N)cc2)CC1 [Compound 4, N-(2-aminophenyl)-4-((1-(2-hydroxy-2-methylpropyl)piperidin-4-yl)amino)benzamide]
- fold induction at 0.625 µM [1]: 1 to 2

Structure (SMILES): CN(c1ccc(C(=O)Nc2ccccc2N)cc1)C1CCN(CC2CC2)CC1 [Compound 5, N-(2-aminophenyl)-4-((1-(cyclopropylmethyl)piperidin-4-yl)(methyl)amino)benzamide]
- fold induction at 0.625 µM [2]: 2 to 3

Structure (SMILES): CN(c1ccc(C(=O)Nc2ccccc2N)cc1)C1CCN(CC(C)(C)O)CC1 [Compound 6, N-(2-aminophenyl)-4-((1-(2-hydroxy-2-methylpropyl)piperidin-4-yl)(methyl)amino) benzamide]
- fold induction at 0.625 µM [2]: 2 to 3

Structure (SMILES): CCN(c1ccc(C(=O)Nc2ccccc2N)cc1)C1CCN(CC2CC2)CC1 [Compound 26, N-(2-aminophenyl)-4-((1-(cyclopropylmethyl)piperidin-4-yl)(ethyl)amino)benzamide Trihydrochloride]
- fold induction at 0.625 µM [2]: 2 to 3

Structure (SMILES): CCN(c1ccc(C(=O)Nc2ccccc2N)cc1)C1CCN(CC(C)(C)O)CC1 [Compound 27, N-(2-aminophenyl)-4-(ethyl(1-(2-hydroxy-2-methylpropyl)piperidin-4-yl)amino)benzamide Trihydrochloride]
- fold induction at 0.625 µM [2]: 2 to 3

Structure (SMILES): Nc1ccccc1NC(=O)c1ccc(N(CC2CC2)C2CCN(CC3CC3)CC2)cc1 [Compound 28, N-(2-aminophenyl)-4-((cyclopropylmethyl)(1-(cyclopropylmethyl)piperidin-4-yl)amino)benzamide Trihydrochloride]
- fold induction at 0.625 µM [2]: 2 to 3

Structure (SMILES): CC(C)(O)CN1CCC(N(CC2CC2)c2ccc(C(=O)Nc3ccccc3N)cc2)CC1 [Compound 29, N-(2-aminophenyl)-4-((cyclopropylmethyl)(1-(2-hydroxy-2-methylpropyl)piperidin-4-yl)amino)benzamide Trihydrochloride]
- fold induction at 0.625 µM [2]: 1 to 2

Structure (SMILES): Nc1ccccc1NC(=O)c1ccc(OC2CCCNCC2)cc1 (stereo not shown) [Compound 33, N-(2-aminophenyl)-4-(azepan-4-yloxy)benzamide hydrochloride]
- fold induction at 0.625 µM [1]: 2 to 3

Structure (SMILES): CN1CCCC(Oc2ccc(C(=O)Nc3ccccc3N)cc2)CC1 (stereo not shown) [Compound 34, N-(2-aminophenyl)-4-((1-methylazepan-4-yl)oxy)benzamide bis(2,2,2-trifluoroacetate)]
- fold induction at 0.625 µM [1]: 1 to 2

Structure (SMILES): CC(C)CN1CCCC(Oc2ccc(C(=O)Nc3ccccc3N)cc2)CC1 (stereo not shown) [Compound 35, N-(2-aminophenyl)-4-((1-isobutylazepan-4-yl)oxy)benzamide dihydrochloride]
- fold induction at 0.625 µM [1]: 2 to 3

Structure (SMILES): CC(C)(O)CN1CCCC(Oc2ccc(C(=O)Nc3ccccc3N)cc2)CC1 (stereo not shown) [Compound 36, N-(2-aminophenyl)-4-((1-(2-hydroxy-2-methylpropyl)azepan-4-yl)oxy)benzamide dihydrochloride]
- fold induction at 0.625 µM [1]: 1 to 2

Structure (SMILES): CC(C)(C)CN1CCCC(Oc2ccc(C(=O)Nc3ccccc3N)cc2)CC1 (stereo not shown) [Compound 37, N-(2-aminophenyl)-4-((1-neopentylazepan-4-yl)oxy)benzamide]
- fold induction at 0.625 µM [1]: 2 to 3

Structure (SMILES): Nc1ccccc1NC(=O)c1ccc(OC2CCCN(CC3CC3)CC2)cc1 (stereo not shown) [Compound 38, N-(2-aminophenyl)-4-((1-(cyclopropylmethyl)azepan-4-yl)oxy)benzamide dihydrochloride]
- fold induction at 0.625 µM [1]: 2 to 3

Structure (SMILES): Nc1ccccc1NC(=O)c1ccc(O[C@H]2CCCN(CC3CC3)CC2)cc1 [Compound 38A, (S)-N-(2-aminophenyl)-4-((1-(cyclopropylmethyl)azepan-4-yl)oxy)benzamide]
- fold induction at 0.625 µM [1]: < 1

Structure (SMILES): Nc1ccccc1NC(=O)c1ccc(O[C@@H]2CCCN(CC3CC3)CC2)cc1 [Compound 38B, (R)-N-(2-aminophenyl)-4-((1-(cyclopropylmethyl)azepan-4-yl)oxy)benzamide]
- fold induction at 0.625 µM [1]: 1 to 2

Structure (SMILES): CC1(CN2CCCC(Oc3ccc(C(=O)Nc4ccccc4N)cc3)CC2)CC1 (stereo not shown) [Compound 39, N-(2-aminophenyl)-4-((1-((1-methylcyclopropyl)methyl)azepan-4-yl)oxy)benzamide]
- fold induction at 0.625 µM [1]: 3 to 5

Structure (SMILES): Nc1ccccc1NC(=O)c1ccc(OC2CCCN(CC3CCCCC3)CC2)cc1 (stereo not shown) [Compound 40, N-(2-aminophenyl)-4-((1-(cyclohexylmethyl)azepan-4-yl)oxy)benzamide dihydrochloride]
- fold induction at 0.625 µM [1]: 3 to 5

Structure (SMILES): Nc1ccccc1NC(=O)c1ccc(OC2CNC2)cc1 [Compound 41, N-(2-aminophenyl)-4-(azetidin-3-yloxy)benzamide hydrochloride]
- fold induction at 0.625 µM [1]: 1 to 2

Structure (SMILES): CN1CC(Oc2ccc(C(=O)Nc3ccccc3N)cc2)C1 [Compound 42, N-(2-aminophenyl)-4-((1-methylazetidin-3-yl)oxy)benzamide]
- fold induction at 0.625 µM [1]: 1 to 2

Structure (SMILES): CC(C)CN1CC(Oc2ccc(C(=O)Nc3ccccc3N)cc2)C1 [Compound 43, N-(2-aminophenyl)-4-((1-isobutylazetidin-3-yl)oxy)benzamide dihydrochloride]
- fold induction at 0.625 µM [1]: 1 to 2

Structure (SMILES): CC(C)(O)CN1CC(Oc2ccc(C(=O)Nc3ccccc3N)cc2)C1 [Compound 44, N-(2-aminophenyl)-4-((1-(2-hydroxy-2-methylpropyl)azetidin-3-yl)oxy)benzamide dihydrochloride]
- fold induction at 0.625 µM [1]: 1 to 2

Structure (SMILES): CC(C)(C)CN1CC(Oc2ccc(C(=O)Nc3ccccc3N)cc2)C1 [Compound 45, dihydrochloride]
- fold induction at 0.625 µM [1]: 1 to 2

Structure (SMILES): Nc1ccccc1NC(=O)c1ccc(OC2CN(CC3CC3)C2)cc1 [Compound 46, N-(2-aminophenyl)-4-((1-(cyclopropylmethyl)azetidin-3-yl)oxy)benzamide dihydrochloride]
- fold induction at 0.625 µM [1]: 1 to 2

Structure (SMILES): CC1(CN2CC(Oc3ccc(C(=O)Nc4ccccc4N)cc3)C2)CC1 [Compound 47, N-(2-aminophenyl)-4-((1-((1-methylcyclopropyl)methyl)azetidin-3-yl)oxy)benzamide dihydrochloride]
- fold induction at 0.625 µM [1]: 1 to 2

Structure (SMILES): Nc1ccccc1NC(=O)c1ccc(OC2CN(CC3CCCCC3)C2)cc1 [Compound 48, N-(2-aminophenyl)-4-((1-(cyclohexylmethyl)azetidin-3-yl)oxy)benzamide dihydrochloride]
- fold induction at 0.625 µM [1]: 2 to 3

Structure (SMILES): Nc1ccccc1NC(=O)c1ccc(O[C@H]2CCNC2)cc1 [Compound 49, (S)-N-(2-aminophenyl)-4-(pyrrolidin-3-yloxy)benzamide hydrochloride]
- fold induction at 0.625 µM [1]: 2 to 3

Structure (SMILES): CN1CC[C@H](Oc2ccc(C(=O)Nc3ccccc3N)cc2)C1 [Compound 50, (S)-N-(2-aminophenyl)-4-((1-methylpyrrolidin-3-yl)oxy)benzamide dihydrochloride]
- fold induction at 0.625 µM [1]: 2 to 3

Structure (SMILES): CC(C)CN1CC[C@H](Oc2ccc(C(=O)Nc3ccccc3N)cc2)C1 [Compound 51, (S)-N-(2-aminophenyl)-4-((1-isobutylpyrrolidin-3-yl)oxy)benzamide dihydrochloride]
- fold induction at 0.625 µM [1]: 1 to 2

Structure (SMILES): CC(C)(O)CN1CC[C@H](Oc2ccc(C(=O)Nc3ccccc3N)cc2)C1 [Compound 52, (S)-N-(2-aminophenyl)-4-((1-(2-hydroxy-2-methylpropyl)pyrrolidin-3-yl)oxy)benzamide dihydrochloride]
- fold induction at 0.625 µM [1]: 1 to 2

Structure (SMILES): CC(C)(C)CN1CC[C@H](Oc2ccc(C(=O)Nc3ccccc3N)cc2)C1 [Compound 53, (S)-N-(2-aminophenyl)-4-((1-neopentylpyrrolidin-3-yl)oxy)benzamide]
- fold induction at 0.625 µM [1]: 1 to 2
